Assays:
Assay type in all cases: cell-based
[1] = test system: SDF1αβ; test: RT-PCR gene expression of SDF1αβ in ligustilide-treated ADSCs; settings: for SDF1αβ expression level (Image J): ADSCs, 24 hours
Protocol: (§1) ADSCs were cultured in the K-SFM as prepared in Example 1 at 37° C. in 5% CO2. The ADSCs were divided into […], and each group was treated with different concentrations (0, 0.625, 1.25, 2.5, 5 and 10 μg/ml) of (Z)-ligustilide for 24 hours, respectively.
(§2) The culture medium were removed from each group of stem cells in Experiment (1), then 1 ml of TRIzol reagent (Invitrogen) was added into each well and incubated at room temperature for 5 minutes. The stem cells were scraped by using a spatula and placed into a 1.5 ml microtube. Then, the cells were lysed completely, and 0.2 ml of trichloromethane (CHCl3) was added into the microtube. The microtube was shaken up and down for 15 seconds and incubated at room temperature for 2 to 3 minutes. The mixture was centrifuged (at 12000 g for 15 minutes at 4° C.). The supernatant was transferred into another 1.5 ml microtube, and 0.5 ml of isopropanol was added therein and mixed completely. The mixture was incubated at room temperature for 10 minutes and then centrifuged (at 12000 g for 10 minutes at 4° C.). The supernatant was removed. The remained sediment was washed with 1 ml of 75% ethanol-containing DEPC water (i.e. diethylpyrocarbonate-treated H2O) and centrifuged (7500 g at 4° C. for 5 minutes) again. The supernatant was removed. The remained sediment was dried by vacuum-pumping. The dried sediment was dissolved in about 0.01 ml to 0.02 ml of DEPC water to obtain total RNA of ADSCs of experimental group and blank group, respectively. The absorbance at a wavelength of 260 nm (OD260) of the samples were determined by a spectrophotometer (DU-800, Beckman) to evaluate the concentration of RNA. Then, the RNA was stored at −80° C. and used in the following Experiment (3).
(§3) The effects of ligustilide on increasing the expression of differentiation-promoting genes (e.g., BDNF and NURR1), increasing the expression of homing-promoting genes (e.g., CXCR4 and SDF1αβ), and decreasing the expression of inflammatory genes (e.g., IL-6 and IL-8) was analyzed by reverse transcription polymerase chain reaction (RT-PCR), wherein the gene expression of glyceraldehyde 3-phosphate dehydrogenase (GAPDH) was served as a control group, and the steps were described as follows.
(§4) The total RNA provided in the above Experiment (2) was reverse transcribed into cDNA. 2.5 μl of each primer (10 pM) shown in Table 1A, 7.5 μl of ddH2O, and 12.5 μl of EconoTaq® PLUS GREEN 2X Master Mix (Lucigen, Middleton, Wis., USA) were mixed with 2.5 μl of the cDNA. The mixture was placed in a RT-PCR machine. The reaction conditions were set as follows: i) 94° C. for 30 seconds, 55° C. for 30 seconds, and […], with 30 cycles of the aforesaid steps; ii) 72° C. for 10 minutes; and iii) cooling to 4° C. to stop the reaction
(§5) The obtained RT-PCR product was analyzed by 1.5% agarose gel electrophoresis for 30 minutes (voltage: 100 volts (V)). Then, the gel was placed in and stained with ethidium bromide (EtBr) for 10 minutes, and photographed by a gel image documentation system (DOC PRINT DP-001FDC, VilberLourmat France).

[2] = test system: CXCR4; test: RT-PCR gene expression of CXCR4 in ligustilide-treated ADSCs; settings: for CXCR4 expression level (Image J): ADSCs, 24 hours
Protocol: as §1, §2, §3, §4, §5

[3] = test system: NURR1; test: RT-PCR gene expression of NURR1 in ligustilide-treated ADSCs; settings: for NURR1 expression level (Image J): ADSCs, 24 hours
Protocol: as §1, §2, §3, §4, §5

[4] = test system: IL-8; test: RT-PCR gene expression of IL-8 in ligustilide-treated ADSCs; settings: for IL-8 expression level (Image J): ADSCs, 24 hours
Protocol: as §1, §2, §3, §4, §5

[5] = test system: IL-6; test: RT-PCR gene expression of IL-6 in ligustilide-treated ADSCs; settings: for IL-6 expression level (Image J): ADSCs, 24 hours
Protocol: as §1, §2, §3, §4, §5

[6] = test system: BDNF; test: RT-PCR gene expression of BDNF in ligustilide-treated ADSCs; settings: for BDNF expression level (Image J): ADSCs, 24 hours
Protocol: as §1, §2, §3, §4, §5

[7] = ADSCs treated with ligustilide, compared to GAPDH control, in words

## CCC/C=C1\OC(=O)C2=C1CCC=C2 [ligustilide, (Z)-ligustilide]
[1]; [7]
  gene expression level of SDF1αβ: increased
[1]; 0.625 μg/ml ligustilide
  SDF1αβ expression level (Image J): 6766.31
[1]; 1.25 μg/ml ligustilide
  SDF1αβ expression level (Image J): 4065.23
[1]; 2.5 μg/ml ligustilide
  SDF1αβ expression level (Image J): 4791.36
[1]; 5 μg/ml ligustilide
  SDF1αβ expression level (Image J): 5767.31
[2]; [7]
  gene expression level of CXCR4: increased
[2]; 0.625 μg/ml ligustilide
  CXCR4 expression level (Image J): 2744.11
[2]; 1.25 μg/ml ligustilide
  CXCR4 expression level (Image J): 3719.23
[2]; 2.5 μg/ml ligustilide
  CXCR4 expression level (Image J): 6539.03
[2]; 5 μg/ml ligustilide
  CXCR4 expression level (Image J): 4138.77
[3]; [7]
  gene expression level of NURR1: increased
[3]; 0.625 μg/ml ligustilide
  NURR1 expression level (Image J): 0.00
[3]; 1.25 μg/ml ligustilide
  NURR1 expression level (Image J): 0.00
[3]; 2.5 μg/ml ligustilide
  NURR1 expression level (Image J): 6694.43
[3]; 5 μg/ml ligustilide
  NURR1 expression level (Image J): 3360.55
[4]; [7]
  gene expression level of IL-8: decreased
[4]; 0.625 μg/ml ligustilide
  IL-8 expression level (Image J): 6102.10
[4]; 1.25 μg/ml ligustilide
  IL-8 expression level (Image J): 9691.71
[4]; 2.5 μg/ml ligustilide
  IL-8 expression level (Image J): 5840.23
[4]; 5 μg/ml ligustilide
  IL-8 expression level (Image J): 3487.33
[5]; [7]
  gene expression level of IL-6: decreased
[5]; 0.625 μg/ml ligustilide
  IL-6 expression level (Image J): 7756.00
[5]; 1.25 μg/ml ligustilide
  IL-6 expression level (Image J): 8204.13
[5]; 2.5 μg/ml ligustilide
  IL-6 expression level (Image J): 5629.93
[5]; 5 μg/ml ligustilide
  IL-6 expression level (Image J): 2804.03
[6]; [7]
  gene expression level of BDNF: increased
[6]; 0.625 μg/ml ligustilide
  BDNF expression level (Image J): 5411.77
[6]; 1.25 μg/ml ligustilide
  BDNF expression level (Image J): 4915.77
[6]; 2.5 μg/ml ligustilide
  BDNF expression level (Image J): 7069.72
[6]; 5 μg/ml ligustilide
  BDNF expression level (Image J): 5083.65

Reference: patent US9523081B2, “Method for enhancing therapeutic effect of stem cells on autoimmune diseases, cardiovascular diseases, and/or hematological diseases” (GWO XI STEM CELL APPLIED TECHNOLOGY CO., LTD., priority 2014, dated 2016)
